Laboratory results published in patent US20190352276A1, “INHIBITORS OF BRUTON'S TYROSINE KINASE” (Joint Stock Company "Biocad", priority 2016, published 2019).

What was measured:
[1] = Stability in human blood plasma; conditions: 10 μM in pooled human blood plasma, incubated 4 hours at 37° C.
Experimental: To assess the blood plasma stability of the drug candidates, we used pooled human blood plasma taken from ten healthy donors. The initial solution (10 Mm in DMSO) was diluted with pooled blood plasma to 10 μM (test solution). The test solution had been incubated for 4 hours in a dry block heater at 37° C. We determined peak areas of the compounds corresponding to the start of the test (before incubating) and the end of the test (after incubating in a dry block heater at 37° C.) by HPLC using Agilent1200 chromatograph (Agilent, USA) with preliminary protein precipitation with acetonitrile. We used gradient elution (1 mL/min flow rate). We determined amount of substance in the sample in % after incubation.
(§1) We evaluated the stability of the compounds.

[2] = Chemical stability in artificial gastric fluid (SGF without enzymes); conditions: 10 μM in SGF without enzymes, pH=1.4, 37° C.
Experimental: The initial candidate solution (10 mM in DMSO) was diluted with the working solution of SGF to the concentration of 10 μm (test solution). The test solution was incubated in a dry block heater at 37° C. We determined peak areas of the compounds corresponding to the start of the test (before incubating) and the end of the test (after incubating in a dry block heater at 37° C.) by HPLC using Agilent1200 chromatograph (Agilent, USA). We used gradient elution (1 mL/min flow rate). We determined amount of substance in the sample in % after incubation.
as §1

Caco-2 cells = assay: Permeability through the monolayer of Caco-2 cells; type: in vitro ADME
Summary of the method: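 Caco-2 monolayers grown 21 days on 0.4 μm transwell filters, integrity checked with Lucifer Yellow. Compounds at 10 μM were added apically at pH 6.5 (A→B) or basolaterally at pH 7.4 with 1% BSA (B→A) and sampled after 2 h. Concentrations by HPLC; Papp calculated, efflux ratio as Papp B-A/Papp A-B.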

SMILES | Amount of substance in the sample, % (stability in human blood plasma) [1] [%] | Amount of substance in the sample in % (chemical stability) [2] [%] | efflux (Papp B-A/Papp A-B) (Caco-2 cells)
C=CC(=O)N1CCC[C@@H](n2nc(-c3ccc(C(=O)Nc4ncccc4F)cc3)c3c(N)ncc(C#N)c32)C1 [BCD-BTK-258, 4-{4-amino-7-cyano-1-[(3R)-1-(prop-2-enoyl)piperidin-3-yl]-1H-pyrazolo[4,3-c]pyridin-3-yl}-N-(3-fluoropyridin-2-yl)benzamide] | – | 100 | –
C=CC(=O)N1CCC[C@@H](n2nc(-c3ccc(C(=O)Nc4ccccn4)cc3)c3c(N)ncc(C#N)c32)C1 [BCD-BTK-234, (R)-4-(1-(1-acryloylpiperidin-3-yl)-4-amino-7-cyano-1H-pyrazolo[4,3-c]pyridin-3-yl)-N-(pyridine-2-yl)benzamide] | 83.5 | 100 | –
C=CC(=O)N1CCC[C@@H](n2nc(-c3ccc(Oc4cccnc4C#N)cc3)c3cncc(F)c32)C1 [BCD-BTK-230, (R)-3-(4-(1-(1-acryloylpiperidin-3-yl)-7-fluoro-1H-pyrazolo[4,3-c]pyridin-3-yl)phenoxy)picolinonitrile] | 93.3 | 99.9 | –
C=CC(=O)N1CCC[C@@H](n2nc(-c3ccc(C(=O)Nc4ccccn4)cc3)c3c(N)ncc(OC)c32)C1 [BCD-BTK-240, (R)-4-(1-(1-acryloylpiperidin-3-yl)-4-amino-7-methoxy-1H-pyrazolo[4,3-c]pyridin-3-yl)-N-(pyridin-2-yl)benzamide] | 100.0 | 100 | –
C=CC(=O)N1CCC[C@@H](n2nc(-c3ccc(Oc4cccnc4C(N)=O)cc3)c3cncc(Cl)c32)C1 [BCD-BTK-220, 3-(4-{7-chloro-1-[(3R)-1-(prop-2-enoyl)piperidin-3-yl]-1H-pyrazolo[4,3-c]pyridin-3-yl}phenoxy)pyridine-2-carboxamide] | 90.2 | 100 | –
C=CC(=O)N1CCC[C@@H](n2nc(-c3ccc(Oc4ccncc4C#N)cc3)c3cncc(Cl)c32)C1 [BCD-BTK-202, (R)-4-(4-(1-(1-acryloylpiperidin-3-yl)-7-chloro-1H-pyrazolo[4,3-c]pyridin-3-yl)phenoxy)nicotinonitrile] | – | – | 0.09

Next, values leading:

Amount of substance in the sample, % (stability in human blood plasma) [1] [%] | Amount of substance in the sample in % (chemical stability) [2] [%] | efflux (Papp B-A/Papp A-B) (Caco-2 cells) | SMILES
100.0 | 100 | – | C=CC(=O)N1CCC[C@@H](n2nc(-c3ccc(C(=O)Nc4ccccn4)cc3)c3c(N)nccc32)C1 [BCD-BTK-242, (R)-4-(1-(1-acryloylpiperidin-3-yl)-4-amino-1H-pyrazolo[4,3-c]pyridin-3-yl)-N-(pyridin-2-yl)benzamide]
80.3 | 100 | – | C=CC(=O)N1CCC[C@@H](n2nc(-c3ccc(Oc4ccncc4)cc3)c3c(N)ncc(OC)c32)C1 [BCD-BTK-239, (R)-1-(1-acryloylpiperidin-3-yl)-4-amine-7-methoxy-3-(4-(pyridin-4-yloxy)phenyl)-1H-pyrazolo[4,3-c]pyridine]
– | – | 0.006 | C=CC(=O)N1CCC[C@@H](n2nc(-c3cnc(C(=O)Nc4cc(C(F)(F)CCC)ccn4)nc3)c3cncc(Cl)c32)C1 [BCD-BTK-292, (R)-5-(1-(1-acryloylpiperidin-3-yl)-7-chloro-1H-pyrazolo[4,3-c]pyridin-3-yl)-N-(4-(1,1-difluorobutyl)pyridin-2-yl)pyrimidine-2-carboxamide]
